# Measurements from PMC11676896, “Protective Action of Cannabidiol on Tiamulin Toxicity in Humans—In Vitro Study” (International Journal of Molecular Sciences, 2024).
# Where a name gives a salt, the structure may show the parent alone.
# Experiments:
# [1] = tested on: SH-SY5Y cells; experiment: NRU assay (lysosomal activity); format: cell-based, human; conditions: 72 h
# Description: (§1) The cytotoxic potential of the veterinary drug and its mixtures with cannabidiol at two non-toxic concentrations: 1.56 and 3.15 µg/mL, on the human SH-SY5Y, HepG2 and HEK 293 cell lines was assessed by decreased viability of the cells within five biochemical endpoints: mitochondrial activity and lysosomal activity (MTT assays, reducing the tetrazolium dye MTT 3-(4,5-dimethylthiazol-2-yl)-2,5-diphenyltetrazolium bromide and neutral red uptake (NRU) assays), total protein content (TPC assay), cellular membrane integrity (leakage lactate dehydrogenase (LDH) assay) and DNA synthesis (the bromodeoxyuridine/5-bromo-2′-deoxyuridine incorporation into the DNA cells (BrdU) assay) after 72 h exposition. Data obtained from the measurement of the optical density in these assays were transformed to percentages in relation to the negative control group (0.1% DMSO in medium), considered to be 100% for the MTT, NRU, TPC and BrdU assays and 0% for the LDH assay. 1% Trition-X 100 solution in medium was used as the positive controls, (Figure 3).
# (§2) The human neuroblastoma (SH-SY5H), hepatoma (HepG2) and kidney cells (HEK 293) cells were purchased from the American Type Culture Collection: ATCCCRL-2266,ATCC HB-8065 and ATCC CRL-1573, respectively. These cells were cultured in Minimum Essential Medium Eagle (MEME) (ATCC). The media were supplemented with 10% FBS, 1% L-glutamine (and 1% antibiotic solution (P4333 Sigma). The cells were maintained in 75 cm^2 cell culture flasks (NUNC) in a humidified incubator at 37 °C in an atmosphere of 5% CO2. The medium was refreshed every two or three days, and the cells were subcultured by 0.25% trypsin–0.02% EDTA after reaching 70–80% confluence. Single cell suspensions were prepared and adjusted to a density of 2 × 10^5 cell/mL^−1 (SH-SY5H), 1 × 10^5 cell/mL^−1 (HepG2) and 1 × 10^5 cell/mL^−1 (HEK-293). The cell suspension was transferred to 96-well plates (100 µL/well) or Lab-Tek chamber slides (8 wells) (Nunc) for staining and incubated for 24 h before the exposure to the studied compounds. Stock solutions of tiamulin fumarate and cannabidiol were prepared in DMSO and diluted with culture medium to obtain a concentration range from 1.56 to 200 µg/mL and 1.56 or 3.156 µg/mL, respectively. […] Cytotoxicity was assessed after 72 h of exposure of the cells to the compounds. […]
# (§3) This method is based on staining living cells with neutral red, which readily diffuses through the plasma membrane and accumulates in lysosomes. […] After 10 min of shaking, the absorbance of the dissolved NR was measured using a Synergy 2 Multi-Mode Microplate Reader (BioTek® Instruments Inc., Winooski, VT, USA) at 540 nm using a blank as a reference. Cytotoxicity was expressed as a percentage of the negative control (0.1% DMSO in medium). […]
# [2] = tested on: HEK 293 cells; experiment: NRU assay (lysosomal activity); format: cell-based, human
# Description: as §1, §2, §3
smiles,measurement,setting,value
"C=C[C@]1(C)C[C@@H](OC(=O)CSCCN(CC)CC)[C@]2(C)[C@H](C)CC[C@]3(CCC(=O)[C@H]32)[C@@H](C)[C@@H]1O [T, tiamulin fumarate]",tiamulin concentration that inhibited lysosomal activity,[1]; significant (p ≤ 0.05) vs negative control,1.56 µg/mL
same,IC50,"[1]; Homo sapiens, read-out: inhibited concentration (IC50), NRU",2.1 ± 0.4 mg/L
same,tiamulin concentration that inhibited lysosomal activity,"[2]; HEK-293, 72 h",25 µg/mL
same,IC50,"[2]; Homo sapiens, HEK293, 72 h, read-out: inhibited concentration (IC50), NRU",34.5 ± 1.1 mg/L
